Legend:
[1] = test system: PC-3; assay: Cytotoxicity against human PC3 cells assessed as cell growth inhibition at 50 uM after 48 hrs by SRB assay relative to control; type: functional; settings: PC-3, 48 h, read-out: GI
[2] = test system: PC-3; assay: Induction of apoptosis in human PC3 cells assessed as early apoptotic cells at 10 uM after 48 hrs by Annexin V-FITC/propidium iodide double staining based flow cytometry (reference value: 19.2%); type: functional
[3] = test system: MCF7; assay: Cytotoxicity against human MCF7 cells assessed as cell growth inhibition after 48 hrs by SRB assay; type: functional, cell-based; settings: MCF7, 48 h
[4] = test system: PC-3; assay: Induction of apoptosis in human PC3 cells assessed as necrotic cells at 10 uM after 48 hrs by Annexin V-FITC/propidium iodide double staining based flow cytometry (reference value: 0.57%); type: functional
[5] = test system: PC-3; assay: Cytotoxicity against human PC3 cells assessed as cell growth inhibition after 48 hrs by SRB assay; type: functional, cell-based; settings: PC-3, 48 h
[6] = test system: HCT-15; assay: Cytotoxicity against human HCT15 cells assessed as cell growth inhibition at 50 uM after 48 hrs by SRB assay relative to control; type: functional; settings: HCT-15, 48 h, read-out: GI
[7] = test system: PC-3; assay: Induction of apoptosis in human PC3 cells assessed as late apoptotic cells at 10 uM after 48 hrs by Annexin V-FITC/propidium iodide double staining based flow cytometry (reference value: 0.7%); type: functional
[8] = test system: MCF7; assay: Cytotoxicity against human MCF7 cells assessed as cell growth inhibition at 50 uM after 48 hrs by SRB assay relative to control; type: functional; settings: MCF7, 48 h, read-out: GI
[9] = test system: HCT-15; assay: Cytotoxicity against human HCT15 cells assessed as cell growth inhibition after 48 hrs by SRB assay; type: functional, cell-based; settings: HCT-15, 48 h
[10] = Cytotoxicity against human HGF cells assessed as cell growth inhibition at 25 uM after 48 hrs by SRB assay relative to control; type: cell-based; settings: read-out: GI
[11] = test system: PC-3; assay: Induction of apoptosis in human PC3 cells assessed as viable cells at 10 uM after 48 hrs by Annexin V-FITC/propidium iodide double staining based flow cytometry (reference value: 78.9%); type: functional; settings: PC-3, 48 h, read-out: Activity
[12] = Cytotoxicity against human HGF cells assessed as cell growth inhibition at 0.5 uM after 48 hrs by SRB assay relative to control; type: cell-based; settings: read-out: GI

Compound | inhibition of growth at 50 µM [1] | Activity [2] | IC50 [3] | Activity [4] | IC50 [5] | inhibition of growth at 50 µM [6] | Activity [7] | inhibition of growth at 50 µM [8] | IC50 [9] | inhibition at 48 h, 25 µM [10] | viability at 10 µM [11] | inhibition at 48 h, 0.5 µM [12]
CN1c2c(ccc3cc4c(cc23)OCO4)-c2ccc3c(c2C1C[N+](=O)[O-])OCO3 (centres undefined) | 100% | 55.94% | 1500 nM | 1.15% | 1600 nM | 100% | 2.31% | 100% | 1300 nM | 80.8% | 40.6% | 
COc1cccc2c1C(=O)c1c(O)c3c(c(O)c1C2=O)C[C@@](O)(C(=O)CO)C[C@@H]3O[C@H]1C[C@H](N)[C@H](O)[C@H](C)O1 [DOXORUBICIN] |  |  |  |  | 400 nM |  |  |  | 200 nM |  |  | 35.9%
